The structures appear in SMILES notation.

The results in this text go back to patent US10552557B2, “Freshening compositions and devices comprising same” (The Procter & Gamble Company, priority 2014, dated 2020).

The assay in a line: Blocker Index (BI), expert graders, isovaleric acid malodorous swatch treated with test material. The source says:
Blocker materials suitable for use in consumer products of the present invention are chosen for their ability to decrease malodor, while not interfering with perception of a fragrance. Material selection is done by assigning two indices to a test sample material from two reference scales in order to rank odor strengths. The two reference scales are the Fragrance Fidelity Index (FFI) scale and the Blocker Index (BI) scale. The FFI ranks the ability of the test sample material to impart a perceivable odor which could cause interference when combined with another fragrance and the BI ranks the ability of the test sample material to reduce malodor perception. The two methods for assigning the indices to a test sample on the FFI and the BI reference scales are given below.
The first step in the method for assigning a BI to a test sample material on the BI reference scale is to create the BI reference swatches. […] Fabric swatches for this test are white knit polycotton (4 inch×4 inch) swatches from EMC ordered as PC 50/50. The supplier is instructed to strip the swatches first, stripping involves washing twice with a fragrance-free detergent and rinsing three times.
The BI scale contains one clean swatch with no malodor applied. […] These solutions are pipetted to the middle of the swatches. […] After drying for 30 minutes in a vented hood, the swatches are wrapped in aluminum foil to prevent odor contamination to the treated swatch. A clean untreated swatch is also included as the lowest anchor point of reference for malodor strength on the BI scale. The BI reference scale swatches should be used within 0.5 to 12 hours and discarded after 12 hours. The swatches are used as scale anchor points when graders evaluate a test sample(s) and are assigned a Blocker Index (BI) as show in Table 12.
The perfumer/expert grader is asked to rank order swatches according to a scale between 0 and 3.
The reference swatches represent the 0, 1, 2, and 3 BIs on the BI reference scale, Table 12. The expert grader should familiarizes him/herself with the strength of the odor on the BI reference swatches by sniffing each one starting at 0 (the lowest odor strength) and ending at 3 (the highest odor strength). This should be done prior to evaluating the swatch treated with the test material.
To evaluate the BI, the test material is applied to a malodorous swatch to determine how well the test material blocks the malodor. […] After drying the malodorous swatch a known concentration of test material solution, between 1 ppm and 100 ppm is pipetted onto the malodorous swatch. […] It is sometimes necessary to evaluate several levels of the test material between about 1 and about 100 ppm to determine the BI.
At least two perfumers/expert graders are used to assign the BI to the test sample. […] The test sample swatch is assigned a BI at or between numbers on the BI in table.

The mark [1] stands for this setting: Conc 10 ppm test material on isovaleric acid malodorous swatch.
[2] abbreviates: Conc 50 ppm test material on isovaleric acid malodorous swatch.

In the case of `CC1(C)CCc2ccc(CCC=O)cc21`, the BI by setting is: under setting [1], 1.5; under setting [2], 2.7.
`CC1CCC2(C(C)C)CC(C)OC2C1` (stereo not shown): the BI by setting is: under setting [1], 2.0; under setting [2], 2.2.
For `CCC(=O)OC1CC2C3C=CCC3C1C2(C)C` (stereo not shown) [8,8-dimethyl-3a,4,5,6,7,7a-hexahydro-1H-4,7-methanoinden-6-yl propionate], in that order: 1.5 and 2.2.
Consider `CC(C)CC(=O)O` [isovaleric acid, reference compound], for which, under “2 μL 0.08% solution, all graders (Table 10)”, the “BI of reference swatch, Ave” value was determined as 1.0.
